This is an account of results in patent US12139499B2, “Heteroaryl compounds for treating Huntington's disease” (PTC THERAPEUTICS, INC., priority 2018, dated 2024).

pIC50: −log10 of the molar value. A value given as a limit tells only on which side of the number the result lay.

This test concerns Endogenous Huntingtin Protein. In words: Endogenous Huntingtin Protein Assay (ELISA-based MSD electrochemiluminescence). It is filed as cell-based. The note with it: Table 1. The method in brief: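 Huntingtin was captured overnight at 4 °C on plates coated with 1 μg/mL MW1 (polyQ-expanded) or MAB2166 antibody and BSA-blocked. Detection used a rabbit monoclonal and then a SULFO-TAG goat anti-rabbit antibody (0.25 μg/mL, 1 h each, room temperature). Signal was read by electrochemiluminescence.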

What is called pIC50 is −log10 of the IC50, conventionally taken in molar units. `CN1CC2(C1)CN(c1nc3nnc(-c4ccc(-c5c[nH]nc5F)cc4O)cc3s1)C2` [Compound 385, 5-(3-fluoro-1H-pyrazol-4-yl)-2-[6-(6-methyl-2,6-diazaspiro[3.3]heptan-2-yl)[1,3]thiazolo[4,5-c]pyridazin-3-yl]phenol] gave a pIC50 of no less than 7.00.

`Oc1cc(-c2cn[nH]c2)ccc1-c1cc2sc(N3C[C@H]4CCNC[C@H]43)nc2nn1` [Compound 386, 2-{6-[(1S,6R)-3,8-diazabicyclo[4.2.0]octan-8-yl][1,3]thiazolo[4,5-c]pyridazin-3-yl}-5-(1H-pyrazol-4-yl)phenol] had a pIC50 of no less than 7.00.

On to `CN(c1nc2nnc(-c3ccc(-c4c[nH]nc4F)cc3O)cc2s1)C1CCNC1` (stereo not drawn) [Compound 387, 5-(3-fluoro-1H-pyrazol-4-yl)-2-[6-[methyl(pyrrolidin-3-yl)amino][1,3]thiazolo[4,5-c]pyridazin-3-yl}phenol], for which the pIC50 was no less than 7.00.

The molecule `CN1CC[C@@H]2CN(c3nc4nnc(-c5ccc(-c6cn[nH]c6)cc5O)cc4s3)[C@@H]2C1` [Compound 388, 2-{6-[(1S,6R)-3-methyl-3,8-diazabicyclo[4.2.0]octan-8-yl][1,3]thiazolo[4,5-c]pyridazin-3-yl}-5-(1H-pyrazol-4-yl)phenol] gave a negative logarithm of the IC50 (pIC50) of 6.30 to 7.00.

For `Oc1cc(-c2cn[nH]c2)ccc1-c1cc2sc(N3C[C@@H]4CCNC[C@@H]43)nc2nn1` [Compound 389, 2-{6-[(1R,6S)-3,8-diazabicyclo[4.2.0]octan-8-yl][1,3]thiazolo[4,5-c]pyridazin-3-yl}-5-(1H-pyrazol-4-yl)phenol], the pIC50 was no less than 7.00.

`CN1CC[C@H]2CN(c3nc4nnc(-c5ccc(-c6cn[nH]c6)cc5O)cc4s3)[C@H]2C1` [Compound 390, 2-{6-[(1R,6S)-3-methyl-3,8-diazabicyclo[4.2.0]octan-8-yl][1,3]thiazolo[4,5-c]pyridazin-3-yl}-5-(1H-pyrazol-4-yl)phenol] showed a pIC50 of no less than 7.00.

Molecule `CN1CCC(N(C)c2nc3nnc(-c4ccc(-c5c[nH]nc5F)cc4O)cc3s2)C1` (stereo not drawn) [Compound 391, 5-(3-fluoro-1H-pyrazol-4-yl)-2-{6-[methyl(1-methylpyrrolidin-3-yl)amino][1,3]thiazolo[4,5-c]pyridazin-3-yl]phenol] gave a pIC50 of no less than 7.00.

Molecule `CN1CCC2(CC1)CN(c1nc3nnc(-c4ccc(-c5c[nH]nc5F)cc4O)cc3s1)C2` [Compound 392, 5-(3-fluoro-1H-pyrazol-4-yl)-2-[6-(7-methyl-2,7-diazaspiro[3.5]nonan-2-yl)[1,3]thiazolo[4,5-c]pyridazin-3-yl]phenol] had a negative-log IC50 (pIC50) of 5.52 to 6.00.

`CCCN1CCC(N(C)c2nc3nnc(-c4ccc(-c5cn[nH]c5)cc4O)cc3s2)CC1` [Compound 393, 2-{6-[methyl(1-propylpiperidin-4-yl)amino][1,3]thiazolo[4,5-c]pyridazin-3-yl]-5-(1H-pyrazol-4-yl)phenol] gave a negative-log IC50 (pIC50) of 5.52 to 6.00.

As to `C[C@H]1C[C@@H](N(C)c2nc3nnc(-c4ccc(-c5cn[nH]c5)cc4O)cc3s2)CCN1` [Compound 394, 2-(6-{methyl[(2S,4S)-2-methylpiperidin-4-yl]amino}[1,3]thiazolo[4,5-c]pyridazin-3-yl)-5-(1H-pyrazol-4-yl)phenol], the negative logarithm of the IC50 (pIC50) was no less than 7.00.

The molecule `C[C@H]1C[C@@H](N(C)c2nc3nnc(-c4ccc(-c5cn[nH]c5)cc4O)cc3s2)CCN1C` [Compound 395, 2-(6-{[(2S,4S)-1,2-dimethylpiperidin-4-yl](methyl)amino}[1,3]thiazolo[4,5-c]pyridazin-3-yl)-5-(1H-pyrazol-4-yl)phenol] gave a pIC50 of no less than 7.00.

Consider `C[C@@H]1C[C@@H](N(C)c2nc3nnc(-c4ccc(-c5cn[nH]c5)cc4O)cc3s2)CCN1` [Compound 396, 2-(6-{methyl[(2R,4S)-2-methylpiperidin-4-yl]amino][1,3]thiazolo[4,5-c]pyridazin-3-yl)-5-(1H-pyrazol-4-yl)phenol], for which the negative-log IC50 (pIC50) is no less than 7.00.

As to `C[C@@H]1C[C@@H](N(C)c2nc3nnc(-c4ccc(-c5cn[nH]c5)cc4O)cc3s2)CCN1C` [Compound 397, 2-(6-{[(2R,4S)-1,2-dimethylpiperidin-4-yl](methyl)amino}[1,3]thiazolo[4,5-c]pyridazin-3-yl)-5-(1H-pyrazol-4-yl)phenol], the pIC50 was no less than 7.00.

In turn, `CN(c1nc2nnc(-c3ccc(-c4c[nH]nc4F)cc3O)cc2s1)C1CCCNCC1` (stereo not drawn) [Compound 398, 2-{6-[(azepan-4-yl)(methyl)amino][1,3]thiazolo[4,5-c]pyridazin-3-yl)-5-(3-fluoro-1H-pyrazol-4-yl)phenol] showed a pIC50 of no less than 7.00.

Turning to `CN(c1nc2nnc(-c3ccc(-c4cn[nH]c4)cc3O)cc2s1)C1CCN(CCO)CC1` [Compound 399, 2-(6-{[1-(2-hydroxyethyl)piperidin-4-yl](methyl)amino}[1,3]thiazolo[4,5-c]pyridazin-3-yl)-5-(1H-pyrazol-4-yl)phenol], the pIC50 is no less than 7.00.
